Results taken from patent US20150065717A1, “NIPECOTIC ACID DERIVATIVE AND USE THEREOF FOR MEDICAL PURPOSES” (Toray Industries, Inc., priority 2012, published 2015).

Key:
[1] = test system: rat anti-GBM antiserum-administered nephritis model; assay: Pharmacological effect in rat anti-GBM antiserum-administered nephritis model; format: in vivo, rat (Wistar-Kyoto strain)
Protocol: Example Compound 1 or 2 was administered to a rat anti-GBM antiserum-administered nephritis model (Proceedings of the National Academy of Sciences of the United States of America, 2005, vol. 102, p. 7736-7741; European journal of pharmacology, 2002, vol. 449, p. 167-176), and the therapeutic effect of the nipecotic acid derivative (I) or a pharmaceutically acceptable salt thereof on chronic renal disease with glomerulonephritis and renal failure was evaluated. Rats (Wistar-Kyoto strain, male, 8 weeks old; Charles River Laboratories Japan, Inc.) with nephritis induced by administration of a rabbit anti-rat GBM antiserum prepared by methods described in documents (Proceedings of the National Academy of Sciences of the United States of America, 2005, vol. 102, p. 7736-7741; European journal of pharmacology, 2002, vol. 449, p. 167-176) into the tail vein were provided as “group with induced nephritis”. On the other hand, rats to which the anti-GBM antiserum was not administered were provided as “normal group”. Two weeks after administration of anti-GBM antiserum, blood was collected from the tail vein or jugular vein of each rat, and the sCre level was measured. The measurement of the sCre level was carried out by the enzymatic method. Two weeks after administration of anti-GBM antiserum, part of the rats were euthanized under anesthesia, and their kidneys were removed and immersed in formalin for storage. The formalin-fixed kidneys were embedded in paraffin, and sections were prepared. Pathological specimens (HE- and PAS-stained) were prepared therefrom, and histopathological examination was carried out. To rats showing pathological conditions of glomerulonephritis and renal failure in the group with induced nephritis, a suspension of Example Compound 1 in 0.5% aqueous methyl cellulose solution […] of anti-GBM antiserum until the end of the experiment. This group was provided as “Example Compound 1 (3 mg/kg)-administered group”. In addition, for comparative control, 0.5% aqueous methyl cellulose solution supplemented with 0.5% Tween 80 was similarly administered to rats in the group with induced nephritis, to provide “nephritis control group”. Similarly, 0.5% aqueous methyl cellulose solution supplemented with 0.5% Tween 80 was administered to the normal group. […] The serum Cys-C level was also measured at Week 5 after the administration of anti-GBM antiserum. The measurement of the serum Cys-C level was carried out using the antigen-antibody reaction. Five weeks after the administration of anti-GBM antiserum, the rats were euthanized under anesthesia. Kidneys were removed therefrom and immersed in formalin for storage. The formalin-fixed kidneys were embedded in paraffin, and sections were prepared. Histopathological specimens (HE- and PAS-stained) were prepared therefrom, and histopathological examination was carried out. […] The abscissa in the figure represents the number of weeks after the administration of anti-GBM antiserum, and the ordinate represents the sCre level (mean±standard error, n=6). The symbol “*” in the figure represents statistically significant difference from the nephritis control group (t-test, p<0.05). The results of histopathological examination of kidneys at Week 5 after the administration of anti-GBM antiserum are shown in FIG. 2, wherein the damaged areas in 30 to 40 glomeruli per individual were scored on a 4-point scale based on the ratio (%) of the lesion area (lesion area score: 1+, less than 25%; 2+, not less than 25% and less than 50%; 3+, not less than 50% and less than 75%; 4+, not less than 75%). Each individual corresponds to each bar, wherein the distribution of lesion area scores is shown. The ordinate in the figure represents the ratio of the lesion area score in each individual. Rats (Wistar-Kyoto strain, male, 10 weeks old; Charles River Laboratories Japan, Inc.) with glomerulonephritis induced by administration of an anti-GBM antiserum into the tail vein were provided as “group with induced nephritis”. […]

recombinant human sEH = target: T1, recombinant human sEH (Homo sapiens, UniProt P34913); assay: In vitro evaluation test for sEH inhibitory activity; format: biochemical; conditions: recombinant human sEH 0.026 μg/mL, fluorescent substrate 6.25 μmol/L, room temperature
T1 construct: purchased Cayman
T1 sequence (P34913 1-555): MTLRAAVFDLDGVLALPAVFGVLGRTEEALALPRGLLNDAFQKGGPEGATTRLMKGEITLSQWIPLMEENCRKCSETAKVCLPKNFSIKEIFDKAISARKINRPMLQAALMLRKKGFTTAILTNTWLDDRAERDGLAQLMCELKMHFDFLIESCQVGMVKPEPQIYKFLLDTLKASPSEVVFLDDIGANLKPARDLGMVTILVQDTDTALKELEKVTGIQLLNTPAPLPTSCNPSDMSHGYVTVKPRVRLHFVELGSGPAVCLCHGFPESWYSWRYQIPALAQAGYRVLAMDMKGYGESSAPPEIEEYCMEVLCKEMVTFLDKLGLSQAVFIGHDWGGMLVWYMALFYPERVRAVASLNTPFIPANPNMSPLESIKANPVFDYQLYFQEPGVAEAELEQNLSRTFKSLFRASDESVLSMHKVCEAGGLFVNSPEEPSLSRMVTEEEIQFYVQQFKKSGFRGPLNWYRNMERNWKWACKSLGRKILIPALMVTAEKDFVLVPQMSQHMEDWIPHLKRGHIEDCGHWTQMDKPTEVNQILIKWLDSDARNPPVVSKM
Protocol: According to the method described in a known document (Analytical Biochemistry, 2005, vol. 343, p. 66-75), the sEH inhibitory activity of each nipecotic acid derivative (I) or a pharmaceutically acceptable salt thereof was evaluated using human sEH.
A recombinant human sEH (final concentration, 0.026 μg/mL; Cayman) was incubated with each test compound in 25 mM Bis-Tris-HCl buffer (pH 7.0) supplemented with 0.1 mg/mL BSA at room temperature for 30 minutes. Thereafter, cyano(6-methoxynaphthalen-2-yl)methyl 2-(3-phenyloxiran-2-yl)acetate (final concentration, 6.25 μmol/L; Cayman) was added thereto as a fluorescent substrate, and the resulting mixture was incubated at room temperature for 20 minutes. The reaction was then stopped by addition of ZnSO4 (final concentration, 0.2 mol/L), and the fluorescence intensity was measured (Fusion α (Packard); Excitation: 330 nm, Emission:485 nm).
The fluorescence intensity observed with addition of neither sEH nor a test compound was regarded as the sEH enzymatic reaction rate of 0%, and the fluorescence intensity observed with addition of sEH but without addition of a test compound was regarded as the sEH enzymatic reaction rate of 100%. From the obtained fluorescence intensity, the sEH enzymatic reaction rate of each test compound was calculated to determine IC50.

[2] = 3 mg/kg, 5 weeks after anti-GBM antiserum, 5 animals

Compound | sCre level vs nephritis control group ([1]; 3 mg/kg orally once per day from Week 2, Week 3 after anti-GBM antiserum, t-test p<0.05, FIG. 1) | serum Cys-C level ([1]; 3 mg/kg orally once per day from Week 2, Week 5 after anti-GBM antiserum, mean±standard error, n=6) | histopathological examination of kidneys, injurious changes vs nephritis control group ([1]; 3 mg/kg, 5 weeks after anti-GBM antiserum) | Basophilic tubules, Mild [1, 2] | Basophilic tubules, Moderate [1, 2] | Dilatation of renal tubules, Mild [1, 2] | Dilatation of renal tubules, Moderate [1, 2] | Glomerular sclerosis, Mild [1, 2] | Glomerular sclerosis, Moderate [1, 2] | Glomerular sclerosis, Severe [1, 2] | Mild infiltration of mononuclear cells into the stroma [1, 2] | Protein casts in outer medulla, Mild [1, 2] | Protein casts in outer medulla, Moderate [1, 2] | Protein casts in outer medulla, Severe [1, 2] | scoring of the damaged area in glomeruli (lesion area score) ([1]; 3 mg/kg, Week 5 after anti-GBM antiserum, FIG. 2) | IC50 (recombinant human sEH) | sCre level vs nephritis control group ([1]; 10 mg/kg orally once per day from Week 2, Week 5 after anti-GBM antiserum, FIG. 3)
CCC(=O)NC1(C(=O)N2CCC[C@@H](C(=O)NCc3ccc(C#N)cc3OC(F)(F)F)C2)CCC1 [Example Compound 1, (R)—N-(4-cyano-2-(trifluoromethoxy)benzyl)-1-(1-propionamidocyclobutanecarbonyl)piperidine-3-carboxamide] | statistically significantly lower | 0.63 ± 0.08 mg/L | lower degrees and frequencies of these injurious changes | 2 number of individuals | 3 number of individuals | 1 number of individuals | 4 number of individuals | 0 number of individuals | 5 number of individuals | 0 number of individuals | 5 number of individuals | 1 number of individuals | 4 number of individuals | 0 number of individuals | suppression of glomerular injury | 1.1 nM | –
CC(C)(NS(C)(=O)=O)C(=O)N1CCC[C@@H](C(=O)NCc2ccc(C#N)cc2OC(F)(F)F)C1 [Example Compound 2, (R)—N-(4-cyano-2-(trifluoromethoxy)benzyl)-1-(2-methyl-2-(methylsulfonamido)propanoyl)piperidine-3-carboxamide] | – | – | – | – | – | – | – | – | – | – | – | – | – | – | – | 2.1 nM | remarkably lower
